Experimental data from paper PMC8662559, “The Effects of a Novel Non-catechol Dopamine Partial Agonist on Working Memory in the Aged Rhesus Monkey” (Frontiers in Aging Neuroscience, 2021).
pEC50, pKi: −log10 of the molar value.

What was measured:
[1] = target: T1, non-human primate D1 receptor (Macaca fascicularis, UniProt G7P6Y1); assay: radioligand competition binding; format: biochemical; conditions: 1.0 nM [3H]-SCH23390, striatal membranes, 4 mM MgSO4, 0.5 mM EDTA, pH 7.4, 37 °C; Cheng-Prusoff
T1 construct: native receptor in striatal membrane homogenate

[2] = target: T2, human D1 receptor (Homo sapiens, UniProt P21728); assay: cAMP functional assay (method of Gray et al., […]); format: cell-based; conditions: partial agonist
T2 construct: gene DRD1; human D1

[3] = target: T2, human D1 receptor; assay: binding assay (method of Gray et al., […]); format: cell-based

T2 sequence (P21728 whole entry): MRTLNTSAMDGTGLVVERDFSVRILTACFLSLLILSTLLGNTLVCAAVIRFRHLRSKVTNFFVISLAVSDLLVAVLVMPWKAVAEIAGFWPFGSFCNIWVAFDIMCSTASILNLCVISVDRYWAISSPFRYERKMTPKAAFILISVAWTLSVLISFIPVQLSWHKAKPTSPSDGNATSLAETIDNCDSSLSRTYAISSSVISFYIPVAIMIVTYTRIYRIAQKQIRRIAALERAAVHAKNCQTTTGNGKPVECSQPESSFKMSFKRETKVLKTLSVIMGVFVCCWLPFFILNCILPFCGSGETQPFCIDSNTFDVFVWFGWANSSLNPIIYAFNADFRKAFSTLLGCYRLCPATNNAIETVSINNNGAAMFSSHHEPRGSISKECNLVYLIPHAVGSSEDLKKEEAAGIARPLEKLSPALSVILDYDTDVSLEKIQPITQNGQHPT
T1 sequence (G7P6Y1 1-446): as the sequence (P21728 whole entry) above, with N311I counted along it

pKi [1]: 7.85
pEC50 [2]: 7.44
pKi [3]: 7.77
Substance: PF-6294
